In the test the test system is subcutaneous cancer xenografts. The test is classed as in vivo, mice. Particulars: oral; BZL101 0.5 ml gavage every third day; cyclophosphamide 25 mg/Kg/day in drinking water; FIG. 6. As for the experimental part:
As in Example 1, above, 10^5 cells were administered to each animal subcutaneously on Day 0. The animals were divided into four groups. The control group received only normal drinking water. The cyclophosphamide only group received 25 mg/Kg/day of cyclophosphamide in their drinking water.

`O=P1(N(CCCl)CCCl)NCCCO1` (stereo not shown) [cyclophosphamide]: the tumor growth inhibition entry was “inhibited tumor growth as compared to the control”.

For the origin of these results see patent US7700136B2, “Scutellaria barbata extract for the treatment of cancer” (priority 2005, dated 2010).
